Test results taken from article PMC4405350, “From Broad-Spectrum Biocides to Quorum Sensing Disruptors and Mussel Repellents: Antifouling Profile of Alkyl Triphenylphosphonium Salts” (PLoS ONE, 2015).
pEC50: −log10 of the molar value.

Experiments:
[1] = tested on: Mytilus galloprovincialis; assay: Mussel foot retraction assay; type: in vivo; details: for Mussels showing foot retraction: 200 μM, highest test concentration; for pEC50: Mytilus galloprovincialis, dripped on the foot, read-out: Concentration required to cause foot repulsion in 50% of mussels
Protocol: The mussel Mytilus galloprovincialis was used as target organism. Individuals of 4.0–4.5 cm shell length were collected at intertidal rocky shore of the outer Ría de Vigo (NW Spain). Animals were kept in running seawater aquarium tanks with open-flow design for few days and fed daily by pulses with a mixture of the microalgae (Tahitian Isochrysis aff. galbana) and sediment from the seafloor below the mussel rafts.
Mussel foot retracting assay was conducted following the method reported by Hayashi and Miki. Briefly, subsamples of individuals from the maintenance tanks were transferred to containers filled with 1-μm FSW. After 30 min, the posterior adductor muscle (PAM) was cut to open both animal´s valves as shown in S1A Fig, and byssus filaments were removed from their insertion with the soft tissues. Animals were disposed individually on flexible innocuous plasticine basis as a holder still for 15 min in FSW. The latter disposition avoided animal´s manipulation before and after each test solution was dripped directly on the foot of immobilized animals. FSW was removed and animals exposed their internal cavities in dry conditions for the dripping actions but maintaining a humidity layer over soft tissues.
Initially two different controls (negative and positive) were considered. As negative control, 2.5 μl of DMSO in 0.2-μm FSW was used. […] After the negative control test, the animals were disposed back in 1-μm FSW for 15 min. With regard to the positive control, 1000 ppm of CuSO4 was used. For the latter case, only animals that did react to such positive control were used. After this second control, animals were disposed back in 1-μm FSW, this time for 25 min in order to remove completely any rest of copper. All animals considered for the experiment have accomplished the two controls satisfactorily.
Different concentrations (6.25, 12.5, 25, 50, 100 and 200 μM) of two test compounds, 3 and 16 were used. Stocks of 40 mM for the two compounds under investigation were prepared in DMSO. Posterior dilution actions to get the distinct concentrations desired were prepared with 0.2-μm FSW. Concentrations were tested in ascending order from 6.25 to 200 μM. Animals were kept in 0.2-μm FSW for 15 min at each time interval between sampling with the aim to wash the internal soft tissues. After each removal of seawater, animals were ready to use again.
Eight series of ten animals each were considered for retracting muscle foot analysis and each test compound. Each potential foot-reacting substance was individually dripped on the foot of the mussels (S1B Fig) and the animal’s reactions were noted. […]

[2] = Solubility in water (stock preparation); type: physicochemical; details: for 40-mM stock
Protocol: Indeed, the inhibitions observed in violacein production for long alkyl chains (10–18, 20) were clearly correlated to the biocidal effect exerted by these compounds, with ‘therapeutic ratios’ (IC50 for growth inhibition/IC50 for violacein inhibition) around 1, in general (Table 2). Note that, as the length of the hydrocarbon chain becomes shorter, this ratio increased (8–9). […] To evaluate these compounds in further detail, […] stock solutions were prepared […] to avoid the use of high concentrations of DMSO in the bioassays. […] Serial two-fold dilutions (500–3.9 μM) were assayed. Consequently, the highest amount of DMSO used in the assay was 0.25% (v/v). […] Growth inhibitory effects are only observed at 500 μM, particularly for compound 7 (Fig 6D).

in vivo = details: in vivo
Protocol: All the biological assays were run by triplicate. […] For the active products, serial dilutions were performed to calculate the half-maximal inhibitory concentrations (IC50) or the minimal inhibitory concentrations (MIC). Unless otherwise stated, the test concentrations were 100, 50, 25, 10, 5, 2.5, 1, 0.5 and 0.1 μM. Dose-response curves were adjusted with GraphPad Prism 5 software using a four-parameter non-linear regression model.
Artemia salina cysts (INVE Aquaculture, Ghent, Belgium) were hatched in brackish water (30 ‰ salinity) at 28 °C with aeration and under constant light. Newly hatched instar I nauplii were harvested for bioassays. Tests were conducted in 96-well plates (15±5 nauplii per well, test volume = 200 μl). The number of dead and alive individuals was recorded after 24 h of incubation at 28 °C and 24-hour photoperiod.

## C/C=C/C[P+](c1ccccc1)(c1ccccc1)c1ccccc1 [Compound 3]
[1]
  Mussels showing foot retraction: 94–95%
  pEC50: 4.33

## CCCCC[P+](c1ccccc1)(c1ccccc1)c1ccccc1 [Compound 7]
[2]
  Solubility in water: poor solubility in water

## CCCCCCCCCCCCCCCC[P+](c1ccccc1)(c1ccccc1)c1ccccc1 [Compound 16]
[1]
  Mussels showing foot retraction: 94–95%
  pEC50: 4.47

## CCCCCCCCCCCCCCCCCC[P+](c1ccccc1)(c1ccccc1)c1ccccc1 [Compound 17]
In vivo
  LC50 at 24 h: < 0.5 µM

## CCCCCCCCCCCCCCCCCCC[P+](c1ccccc1)(c1ccccc1)c1ccccc1 [Compound 18]
In vivo
  LC50 at 24 h: < 0.5 µM
